Consider 21 compounds from US9902794B2, “Curable composition, optical component and compound” (FUJIFILM Corporation, priority 2014, dated 2018).

A short description of the data set: Solvent solubility evaluation of aromatic ring-containing compound in PGMEA. It is filed as physicochemical. The note with it: 1 g compound and 1 mL PGMEA stirred for 24 hours at 25° C. The protocol: <Solvent Solubility Evaluation>
1 g of an aromatic ring-containing compound and 1 mL of propylene glycol monomethyl ether acetate (PGMEA) were stirred for 24 hours at 25° C. and then the aromatic ring-containing compound was mixed with PGMEA uniformly and evaluated by the following criteria.
A: 50% by mass or more of an aromatic ring-containing compound were dissolved in PGMEA.
B: 30% by mass or more and less than 50% by mass of an aromatic ring-containing compound were dissolved in PGMEA.
C: 5% by mass or more and less than 30% by mass of an aromatic ring-containing compound were dissolved in PGMEA.
D: The amount of an aromatic ring-containing compound dissolved in PGMEA was less than 5% by mass.
The solvent solubility of an aromatic ring-containing compound was measured in the same manner as described above.

`C=CC(=O)OCCOc1ccc(C2(c3ccc(OCCOC(=O)C=C)cc3)c3ccccc3-c3ccccc32)cc1` [Comparative Compound 1, reference compound]: the Solvent solubility evaluation result was “C (5% by mass or more and less than 30% by mass of an aromatic ring-containing compound were dissolved in PGMEA)”.
In the case of `C=CC(=O)OCCOc1ccc2c(c1)-c1cc3ccccc3cc1C2(c1ccc(-c2nc3ccccc3s2)cc1)c1ccc2cc(OCCOC(=O)C=C)ccc2c1` (stereo not drawn) [Compound 1], the Solvent solubility evaluation entry was “A (50% by mass or more of an aromatic ring-containing compound were dissolved in PGMEA)”.
Take `C=CC(=O)OCCOc1ccc2c(c1)-c1cc3ccccc3cc1C2(c1ccc(-c2nc3ccccc3s2)cc1)c1ccc(OCCOC(=O)C=C)c2ccccc12` (stereo not drawn) [Compound 2]: the Solvent solubility evaluation result is listed as “A (50% by mass or more of an aromatic ring-containing compound were dissolved in PGMEA)”.
As for `C=CC(=O)OCCOc1ccc2nc(-c3ccc(C4(c5ccc(-c6nc7ccc(OCCOC(=O)C=C)cc7s6)cc5)c5ccccc5-c5ccccc54)cc3)sc2c1` [Compound 3], the Solvent solubility evaluation result was “A (50% by mass or more of an aromatic ring-containing compound were dissolved in PGMEA)”.
For `C=CC(=O)OCCOc1ccc(-c2ccc3nc(C4(c5nc6ccc(-c7ccc(OCCOC(=O)C=C)cc7)cc6s5)c5ccccc5-c5cc6ccccc6cc54)sc3c2)cc1` [Compound 4], the Solvent solubility evaluation result is listed as “A (50% by mass or more of an aromatic ring-containing compound were dissolved in PGMEA)”.
For `C=CC(=O)OCCOc1ccc2cc(-c3ccc4nc(C5(c6nc7ccc(-c8ccc9cc(OCCOC(=O)C=C)ccc9c8)cc7s6)c6ccccc6-c6cc7ccccc7cc65)sc4c3)ccc2c1` [Compound 5], the Solvent solubility evaluation result is recorded as “A (50% by mass or more of an aromatic ring-containing compound were dissolved in PGMEA)”.
As to `C=CC(=O)OCCOc1ccc2nc(-c3ccc(C4(c5ccc(-c6nc7ccc(OCCOC(=O)C=C)cc7s6)cc5)c5ccccc5-c5cc6ccccc6cc54)cc3)sc2c1` [Compound 6], the Solvent solubility evaluation result is given as “A (50% by mass or more of an aromatic ring-containing compound were dissolved in PGMEA)”.
On to `C=CC(=O)OCCOc1ccc(-c2nc3ccc(C4(c5ccc6nc(-c7ccc(OCCOC(=O)C=C)cc7)sc6c5)c5ccccc5-c5ccccc54)cc3s2)cc1` [Compound 7], for which the Solvent solubility evaluation entry is “A (50% by mass or more of an aromatic ring-containing compound were dissolved in PGMEA)”.
The value for `C=CC(=O)OCCOc1ccc2cc(-c3nc4ccc(C5(c6ccc7nc(-c8ccc9cc(OCCOC(=O)C=C)ccc9c8)sc7c6)c6ccccc6-c6ccccc65)cc4s3)ccc2c1` [Compound 8] was “A (50% by mass or more of an aromatic ring-containing compound were dissolved in PGMEA)”.
Take `C=CC(=O)OCCOc1ccc(-c2nc3ccc(C4(c5ccc6nc(-c7ccc(OCCOC(=O)C=C)cc7)sc6c5)c5ccccc5-c5cc6ccccc6cc54)cc3s2)cc1` [Compound 9]: the Solvent solubility evaluation entry was “A (50% by mass or more of an aromatic ring-containing compound were dissolved in PGMEA)”.
As for `C=CC(=O)OCCOc1ccc2cc(-c3nc4ccc(C5(c6ccc7nc(-c8ccc9cc(OCCOC(=O)C=C)ccc9c8)sc7c6)c6ccccc6-c6cc7ccccc7cc65)cc4s3)ccc2c1` [Compound 10], the entry is “A (50% by mass or more of an aromatic ring-containing compound were dissolved in PGMEA)”.
Regarding `C=CC(=O)OCCOc1ccc(-c2nc3cc(C(c4ccccc4)(c4ccccc4)c4ccc5sc(-c6ccc(OCCOC(=O)C=C)cc6)nc5c4)ccc3s2)cc1` [Compound A], the Solvent solubility evaluation result was “B (30% by mass or more and less than 50% by mass of an aromatic ring-containing compound were dissolved in PGMEA)”.
As for `C=CC(=O)OCCOc1ccc2c(c1)-c1cc(OCCOC(=O)C=C)ccc1C2(c1ccc2nc(-c3ccccc3)sc2c1)c1ccc2nc(-c3ccccc3)sc2c1` [Compound B], the entry is “B (30% by mass or more and less than 50% by mass of an aromatic ring-containing compound were dissolved in PGMEA)”.
The value for `C=CC(=O)OCCOc1ccc(-c2ccc(C3(c4ccc(OCCOC(=O)C=C)cc4)c4ccccc4-c4cc5sc(-c6ccccc6)nc5cc43)cc2)cc1` (stereo not drawn) [Compound C] was “B (30% by mass or more and less than 50% by mass of an aromatic ring-containing compound were dissolved in PGMEA)”; that for `C=CC(=O)OCCOc1ccc2c(c1)C(c1ccc(-c3nc4ccccc4o3)cc1)(c1ccc3cc(OCCOC(=O)C=C)ccc3c1)c1cc3ccccc3cc1-2` (stereo not drawn) [Compound D] was “B (30% by mass or more and less than 50% by mass of an aromatic ring-containing compound were dissolved in PGMEA)”; that for `C=CC(=O)OCCOc1ccc2cc(C3(c4ccc(OCCOC(=O)C=C)c(-c5nc6ccccc6s5)c4)c4ccccc4-c4cc5ccccc5cc43)ccc2c1` (stereo not drawn) [Compound E] was “A (50% by mass or more of an aromatic ring-containing compound were dissolved in PGMEA)”.
As to `C=CC(=O)OCCOc1ccc(C2(c3ccc4sc(-c5ccccc5)nc4c3)c3ccccc3-c3cc(OCCOC(=O)C=C)ccc32)cc1` (stereo not drawn) [Compound F], the Solvent solubility evaluation result is “B (30% by mass or more and less than 50% by mass of an aromatic ring-containing compound were dissolved in PGMEA)”.
For `C=CC(=O)OCCOc1ccc(C2(c3ccc(OCCOC(=O)C=C)cc3)c3ccccc3-c3cc4sc(-c5ccccc5)nc4cc32)cc1` [Compound G], the Solvent solubility evaluation entry was “B (30% by mass or more and less than 50% by mass of an aromatic ring-containing compound were dissolved in PGMEA)”.
The value for `C=CC(=O)OCCOc1ccc(-c2nc3cc(C4(c5ccc6oc(-c7ccc(OCCOC(=O)C=C)cc7)nc6c5)c5ccccc5-c5cc6ccccc6cc54)ccc3o2)cc1` [Compound H] was “B (30% by mass or more and less than 50% by mass of an aromatic ring-containing compound were dissolved in PGMEA)”; that for `C=CC(=O)OCCOc1ccc2nc(C3(c4nc5ccc(OCCOC(=O)C=C)cc5s4)c4ccccc4-c4ccccc43)sc2c1` [Compound I] was “A (50% by mass or more of an aromatic ring-containing compound were dissolved in PGMEA)”; that for `C=CC(=O)OCCOc1ccc(C2(c3ccc4sc(-c5ccc6cc(OCCOC(=O)C=C)ccc6c5)nc4c3)c3ccccc3-c3cc4ccccc4cc32)cc1` (stereo not drawn) [Compound J] was “A (50% by mass or more of an aromatic ring-containing compound were dissolved in PGMEA)”.
